Test results from ChEMBL document CHEMBL1201862, “PubChem BioAssay data set” (2004).
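Compound exposure: 48 hours, 5 concentrations, 96-well plates. GI50 marks 50% less growth.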 Active and inactive are the calls of the source. Rule as the data show it: active = GI50 up to about 1.1 µM and inactive = higher.

Experiments:
Experiment in all cases: DTP human tumour cell line panel, 48 h
[1] = test system: 786-0
[2] = test system: A498
[3] = test system: A549
[4] = test system: ACHN
[5] = test system: CAKI-1
[6] = test system: CCRF-CEM
[7] = test system: COLO 205
[8] = test system: DLD-1
[9] = test system: DMS-114
[10] = test system: DMS-273
[11] = test system: EKVX
[12] = test system: HCC 2998
[13] = test system: HCT-15
[14] = test system: HL-60
[15] = test system: HOP-18
[16] = test system: HOP-62
[17] = test system: HOP-92
[18] = test system: HT-29
[19] = test system: IGROV-1
[20] = test system: K562
[21] = test system: KM-20L2
[22] = test system: KM12
[23] = test system: LXFL 529
[24] = test system: M14
[25] = test system: MOLT-4
[26] = test system: Malme-3M
[27] = test system: NCI-H226
[28] = test system: NCI-H23
[29] = test system: NCI-H460
[30] = test system: NCI-H522
[31] = test system: OVCAR-3
[32] = test system: OVCAR-4
[33] = test system: OVCAR-5
[34] = test system: OVCAR-8
[35] = test system: RPMI-8226
[36] = test system: RXF 631
[37] = test system: SF-268
[38] = test system: SF-295
[39] = test system: SF-539
[40] = test system: SK-MEL-28
[41] = test system: SK-MEL-2
[42] = test system: SK-MEL-5
[43] = test system: SK-OV-3
[44] = test system: SN12C
[45] = test system: SNB-19
[46] = test system: SNB-75
[47] = test system: SNB-78
[48] = test system: SW-620
[49] = test system: TK-10
[50] = test system: U-251
[51] = test system: UACC-257
[52] = test system: UACC-62
[53] = test system: UO-31
[54] = test system: XF498
[55] = test system: HCT-116
[56] = test system: LOX IMVI
[57] = test system: M19-MEL
[58] = test system: RXF 393

What does the source list for `Cn1c(=O)nc2n(-c3ccc(Cl)cc3)c(-c3ccccc3)c(-c3ccccc3)nc-2c1=O`?
GI50 [1]: 29.8 µM (inactive); GI50 [2]: 49.3 µM (inactive); GI50 [3]: 31.1 µM (inactive); GI50 [4]: 19.9 µM (inactive); GI50 [5]: 24.8 µM (inactive); GI50 [6]: 21.9 µM (inactive); GI50 [7]: 33 µM (inactive); GI50 [8]: 34 µM (inactive); GI50 [9]: 28.1 µM (inactive); GI50 [10]: 22.6 µM (inactive); GI50 [11]: 47 µM (inactive); GI50 [12]: 47.2 µM (inactive); GI50 [13]: 22.5 µM; GI50 [14]: 18.3 µM (inactive); GI50 [15]: 57.9 µM (inactive); GI50 [16]: 25.3 µM (inactive); GI50 [17]: 16.5 µM (inactive); GI50 [18]: 32.1 µM (inactive); GI50 [19]: 30.1 µM (inactive); GI50 [20]: 25.6 µM (inactive); GI50 [21]: 30.2 µM (inactive); GI50 [22]: 23.8 µM (inactive); GI50 [23]: 27.7 µM (inactive); GI50 [24]: 20 µM (inactive); GI50 [25]: 16.5 µM (inactive); GI50 [26]: 28.4 µM (inactive); GI50 [27]: 19.2 µM (inactive); GI50 [28]: 66.2 µM (inactive); GI50 [29]: 24.7 µM (inactive); GI50 [30]: 36.7 µM (inactive); GI50 [31]: 21.7 µM (inactive); GI50 [32]: 29.5 µM (inactive); GI50 [33]: 66.8 µM (inactive); GI50 [34]: 37.5 µM (inactive); GI50 [35]: 22.1 µM (inactive); GI50 [36]: 28.3 µM (inactive); GI50 [37]: 23.6 µM (inactive); GI50 [38]: 30.1 µM (inactive); GI50 [39]: 23 µM (inactive); GI50 [40]: 25.5 µM (inactive); GI50 [41]: 23.6 µM (inactive); GI50 [42]: 20.1 µM (inactive); GI50 [43]: 40.3 µM (inactive); GI50 [44]: 33.6 µM (inactive); GI50 [45]: 32.1 µM (inactive); GI50 [46]: 23.2 µM (inactive); GI50 [47]: 49.2 µM (inactive); GI50 [48]: 40.7 µM (inactive); GI50 [49]: 51.2 µM (inactive); GI50 [50]: 27.5 µM (inactive); GI50 [51]: 24.3 µM (inactive); GI50 [52]: 14.5 µM (inactive); GI50 [53]: 18.4 µM (inactive); GI50 [54]: 12.9 µM (inactive)

What does the source list for `CCOC(=O)/C(=C\c1ccc(N(CCC#N)CCC#N)cc1)NC(=O)c1cc([N+](=O)[O-])ccc1Cl`?
GI50 [1]: > 100 µM (inactive); GI50 [2]: > 100 µM (inactive); GI50 [3]: > 100 µM (inactive); GI50 [4]: > 100 µM (inactive); GI50 [5]: > 100 µM (inactive); GI50 [6]: 55.1 µM (inactive); GI50 [7]: > 100 µM (inactive); GI50 [8]: > 100 µM (inactive); GI50 [9]: > 100 µM (inactive); GI50 [10]: > 100 µM (inactive); GI50 [11]: > 100 µM (inactive); GI50 [12]: > 100 µM (inactive); GI50 [55]: > 100 µM (inactive); GI50 [13]: > 100 µM; GI50 [14]: > 100 µM (inactive); GI50 [15]: > 100 µM (inactive); GI50 [16]: > 100 µM (inactive); GI50 [18]: > 100 µM (inactive); GI50 [19]: > 100 µM (inactive); GI50 [20]: > 100 µM (inactive); GI50 [21]: > 100 µM (inactive); GI50 [22]: > 100 µM (inactive); GI50 [56]: 69 µM (inactive); GI50 [23]: > 100 µM (inactive); GI50 [24]: > 100 µM (inactive); GI50 [57]: > 100 µM (inactive); GI50 [25]: 72.6 µM (inactive); GI50 [26]: > 100 µM (inactive); GI50 [27]: > 100 µM (inactive); GI50 [28]: > 100 µM (inactive); GI50 [29]: > 100 µM (inactive); GI50 [30]: 56.1 µM (inactive); GI50 [31]: 63.4 µM (inactive); GI50 [32]: > 100 µM (inactive); GI50 [33]: > 100 µM (inactive); GI50 [34]: > 100 µM (inactive); GI50 [35]: 56.6 µM (inactive); GI50 [58]: > 100 µM (inactive); GI50 [36]: > 100 µM (inactive); GI50 [37]: > 100 µM (inactive); GI50 [38]: > 100 µM (inactive); GI50 [39]: > 100 µM (inactive); GI50 [40]: > 100 µM (inactive); GI50 [41]: > 100 µM (inactive); GI50 [42]: > 100 µM (inactive); GI50 [43]: > 100 µM (inactive); GI50 [44]: > 100 µM (inactive); GI50 [45]: > 100 µM (inactive); GI50 [46]: > 100 µM (inactive); GI50 [47]: > 100 µM (inactive); GI50 [48]: > 100 µM (inactive); GI50 [49]: > 100 µM (inactive); GI50 [50]: > 100 µM (inactive); GI50 [51]: > 100 µM (inactive); GI50 [52]: > 100 µM (inactive); GI50 [53]: 69 µM (inactive)
